Experimental data: the supplement of paper PMC10307832

Columns and labels:
Experiment in all cases: relative viability (nuclei count vs DMSO), 5 days (fraction); higher = more cells survive
[1] = compound: O=c1[nH]cc(F)c(=O)[nH]1 [5-Fluorouracil] + Cc1cc(Nc2cc(N3CCN(C)CC3)nc(Sc3ccc(NC(=O)C4CC4)cc3)n2)n[nH]1 [Tozasertib] (partner 0.1 µM)
How it was run: (§1)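 Each reported value is a median over duplicate plates. It expresses relative viability: treated-well nuclei count divided by vehicle-well nuclei count. Lung cancer cell lines in 1536-well plates were dosed by pin tool a day after seeding, alone with one drug or with a fixed anchor-drug dose plus five library-drug doses (not always all listed) in √10 steps, and nuclei were counted after 5 days.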

Sulindac + Pemetrexed = compound: CC1=C(CC(=O)O)c2cc(F)ccc2/C1=C\c1ccc([S+](C)[O-])cc1 [Sulindac] + Nc1nc2[nH]cc(CCc3ccc(C(=O)N[C@@H](CCC(=O)O)C(=O)O)cc3)c2c(=O)[nH]1 [Pemetrexed] (partner 0.2 µM)
How it was run: as §1

[2] = compound: O=c1[nH]cc(F)c(=O)[nH]1 [5-Fluorouracil] + O=C(c1cc(Cc2n[nH]c(=O)c3ccccc23)ccc1F)N1CCN(C(=O)C2CC2)CC1 [Olaparib] (partner 8 µM)
How it was run: as §1

Sulindac + Vorinostat = compound: CC1=C(CC(=O)O)c2cc(F)ccc2/C1=C\c1ccc([S+](C)[O-])cc1 [Sulindac] + O=C(CCCCCCC(=O)Nc1ccccc1)NO [Vorinostat] (partner 1 µM)
How it was run: as §1

Cell Line | relative viability ([1]; first compound 0.02 µM) | relative viability ([1]; first compound 0.2 µM) | relative viability ([1]; first compound 0.6325 µM) | relative viability ([1]; first compound 2 µM) | relative viability (Sulindac + Pemetrexed; first compound 0.08 µM) | relative viability (Sulindac + Pemetrexed; first compound 0.253 µM) | relative viability (Sulindac + Pemetrexed; first compound 0.8 µM) | relative viability (Sulindac + Pemetrexed; first compound 2.53 µM) | relative viability (Sulindac + Pemetrexed; first compound 8 µM) | relative viability ([2]; first compound 0.02 µM) | relative viability ([2]; first compound 0.2 µM) | relative viability ([2]; first compound 0.6325 µM) | relative viability ([2]; first compound 2 µM) | relative viability (Sulindac + Vorinostat; first compound 0.08 µM) | relative viability (Sulindac + Vorinostat; first compound 0.253 µM) | relative viability (Sulindac + Vorinostat; first compound 0.8 µM) | relative viability (Sulindac + Vorinostat; first compound 2.53 µM) | relative viability (Sulindac + Vorinostat; first compound 8 µM)
RERF-LC-KJ | 0.499 | 0.432 | 0.416 | 0.414 | 0.458 | 0.486 | 0.506 | 0.447 | 0.519 | 0.985 | 0.829 | 0.878 | 0.763 | 0.687 | 0.823 | 0.597 | 0.78 | 0.734
HOP-62 | 0.368 | 0.364 | 0.389 | 0.319 | 0.412 | 0.27 | 0.31 | 0.258 | 0.389 | 0.39 | 0.449 | 0.405 | 0.387 | 0.826 | 0.88 | 0.526 | 0.598 | 0.796
NCI-H2126 | 0.634 | 0.392 | 0.316 | 0.281 | 0.774 | 0.68 | 0.658 | 0.692 | 0.699 | 0.808 | 0.374 | 0.329 | 0.254 | 0.902 | 0.79 | 0.721 | 0.715 | 0.839
SW 1573 | 0.205 | 0.175 | 0.183 | 0.153 | 0.91 | 0.887 | 0.737 | 0.754 | 0.9 | 0.477 | 0.625 | 0.416 | 0.262 | 0.777 | 0.95 | 0.585 | 0.683 | 1.11
NCI-H1793 | 0.318 | 0.349 | 0.398 | 0.251 | 0.957 | 0.824 | – | 1.13 | 1.14 | 0.787 | 0.9 | 0.613 | 0.483 | 0.726 | 0.716 | – | 0.637 | 0.68
SK-LU-1 | 0.412 | 0.408 | 0.346 | 0.338 | 1.13 | 1.05 | 0.821 | 1.02 | 1.02 | 0.511 | 0.551 | 0.557 | 0.407 | 0.877 | 0.901 | 0.74 | 0.722 | 0.874
H3255 | 0.63 | 0.663 | 0.652 | 0.497 | 0.592 | 0.573 | 0.549 | 0.567 | 0.568 | 0.573 | 0.578 | 0.578 | 0.556 | 0.765 | 0.723 | 0.661 | 0.695 | 0.819
EMC-BAC-2 | 0.293 | 0.292 | 0.33 | 0.287 | 0.429 | 0.441 | 0.408 | 0.451 | 0.466 | 0.479 | 0.53 | 0.45 | 0.469 | 0.559 | 0.405 | 0.367 | 0.426 | 0.528
NCI-H522 | 0.515 | 0.556 | 0.586 | 0.48 | 0.859 | 0.985 | 1.05 | 0.88 | 0.96 | 0.547 | 0.618 | 0.647 | 0.621 | 0.673 | 0.829 | 0.747 | 0.906 | 0.964
CAL-12T | 0.337 | 0.385 | 0.316 | 0.221 | 1.18 | 1.1 | 1.24 | 1.14 | 1.44 | 0.701 | 0.634 | 0.638 | 0.365 | 0.783 | 0.858 | 0.671 | 0.821 | 1.07
SK-MES-1 | 1.05 | 0.408 | 0.319 | 0.28 | 1.12 | 0.99 | 1.03 | 1.03 | 1.06 | 0.656 | 0.32 | 0.296 | 0.264 | 1.43 | 1.25 | 1.09 | 1.23 | 1.16
NCI-H1355 | 0.529 | 0.366 | 0.258 | 0.226 | 1.02 | 1.05 | 0.965 | 1.02 | 1.13 | 0.716 | 0.485 | 0.253 | 0.225 | 0.586 | 0.721 | 0.488 | 0.619 | 0.723
PC-3 [JPC-3] | 0.828 | 0.881 | 0.827 | 0.554 | 1.07 | 1.04 | 0.738 | 1.07 | 1.19 | 1.17 | 1.14 | 1.09 | 0.912 | 0.839 | 0.786 | 0.647 | 0.778 | 0.967
LK-2 | 0.169 | 0.176 | 0.16 | 0.189 | 0.315 | 0.29 | 0.228 | 0.221 | 0.293 | 0.589 | 0.814 | 0.529 | 0.428 | 0.292 | 0.258 | 0.234 | 0.289 | 0.228
NCI-H1650 | 0.408 | 0.401 | 0.317 | 0.211 | 0.443 | 0.391 | 0.349 | 0.377 | 0.385 | 0.797 | 0.754 | 0.381 | 0.229 | 0.586 | 0.54 | 0.605 | 0.486 | 0.557
